Values joined by “and” are separate entries in the source; they are usually repeats but may differ in a detail not shown here. Identical values can stand only once. “Also recorded” adds a separate entry of the source. Like-named read-outs stand apart in the source and are kept apart here.
Columns and labels:
[1] = Distribution coefficient analysis (LogD7.4), n-octanol/PBS; type: physicochemical
Procedure: Radioligand [^18F]2 (0.03 MBq, 1 μL, in EtOH) was mixed with PBS (500 μL) and n-octanol (500 μL). The sample was vortexed (10 min) followed by centrifugation (1×g, 10 min). Three aliquots (100 μL) from each layer were taken and counts measured using a 2480 WIZARD2 Automatic Gamma Counter (PerkinElmer, UK). Experiment was repeated in triplicate in n = 3 determinations (supporting information, Additional file 1: Table S1). Distribution coefficient (LogD7.4) was calculated as the logarithm of the ratio between CPM of the octanol and buffer phase.

[2] = Stability of formulated radioligand; type: physicochemical; conditions: up to 4 h after formulation; 10% (v/v) EtOH/PBS
[3] = system: T47D cells; test: Cell uptake study of radioligand in breast cancer cell lines; type: cell-based, human
Procedure: T47D, MCF-7 and MDA-MB-231 cells (1 × 10^5) were plated into 6-well plates and used for receptor binding assays at 60–80% confluence. Cell medium was removed and cells were washed with cold PBS buffer. [^18F]2 (37 kBq/mL) was added to individual wells and cells were incubated at 37 °C in a humidified atmosphere of 5% CO2 for 60 min. Cells were co-incubated with 0.01–1 μM of cold progesterone for the blocking study. Cells were then washed 3 times with ice-cold PBS and lysed with RIPA buffer. Radioactivity was determined using a gamma spectrometer (Automatic Gamma counter, Wizard 3 Wallac). Radioactivity was normalised to protein content determined using a BCA 96-well plate assay (Thermo Fisher Scientific Inc., USA) and expressed as a percentage of total radioactivity per mg of protein.

[4] = In vitro radioactive metabolite analysis in mouse liver microsomes; type: in vitro ADME; conditions: MLM, 60 min, radio-HPLC integration
Procedure: Radioligand [^18F]2 (3 MBq, ca. 80 μL), mouse liver microsomes (50 μL, 1 mg/mL), NADPH regeneration system A (50 μL), NADPH regeneration system B (10 μL), PBS 0.5 M pH 7.5 (200 μL) and water (ca. 200 μL) were added to a plastic 1.5 mL tube. The mixture was incubated at 37 °C for 60 min and transferred into a plastic centrifuge tube (10 mL). Proteins were precipitated with ice-cold MeOH (2 mL) and the mixture was centrifuged (12,000 g, 3 min) to pellet the precipitate. The supernatant was removed, evaporated to dryness and the residue was suspended in 37% MeCN + 0.1%TFA / 63% Water + 0.1%TFA for RP-HPLC using gradient 3 (supporting information, section 10.3). The experiment was performed in n = 3 determinations. Extraction efficiency of radioactivity from the protein pellet was calculated to be 93.5% ± 1.6 (Additional file 1: Table S3). HPLC data is shown in the supporting information (Additional file 1: Figure S35).

[5] = Dynamic PET/CT imaging in C57BL/6 female mice; type: in vivo; conditions: PET images acquired over 50 min
Procedure: Mice were anaesthetised with 3–5% isoflurane at a flow rate of 1 L/min, and then reduced to 1.5–2% isoflurane for anaesthesia maintenance during imaging. [^18F]2 was injected via the tail vein at the commencement of a dynamic PET scan using a dedicated small animal PET/CT scanner (Sedecal SuperArgus2R, Sedecal, Spain). Images were acquired over a 50 min imaging sequence, followed by CT imaging acquired in 514 projections for anatomic coregistration. PET emission data were corrected for decay and dead time and reconstructed using 3D-OSEM. Data were analysed based on regions of interest (ROI) drawn within the tumours and tissue. Time-activity curves (TAC) were calculated as an average form the region of interest analysis of three mice (Additional file 1: Figure S34). Data was analysed using AMIDE software (Loening and Gambhir, [2003]) and VivoQuant (InVicro, MA, USA) and regions of interest (ROIs) were selected by hand, and the count densities were averaged for each frame to obtain a TAC for each ROI.

[6] = Ex vivo biodistribution in C57BL/6 female mice; conditions: 50 min p.i.
Procedure: Pubertal female C57BL/6 mice were injected intraperitoneally with 30 IU gonadotropins, 15 IU Follicle-stimulating hormone (FSH) and 15 IU luteinizing hormone (LH) followed by 5 IU […] (hCG) after 48 h (Sigma-Aldrich, Gillingham, UK). After the imaging studies, the ovaries were removed and snap-frozen in liquid nitrogen for later analysis of protein expression by western blot.
[^18F]2 (455 ± 62 kBq) was injected into the tail vail of female C57BL/6 mice. Whilst under anaesthesia the animals were sacrificed and tissues of interest such as, heart, lung, liver, spleen, kidneys, stomach, muscle, bone, ovary, small intestines and large intestines were collected in pre-weighed counting tubes. Radioactivity within tissue samples was counted in a gamma spectrometer (Automatic Gamma Counter, Wizard 3 Wallac), and then weighed to determine the mass of the tissue. CPM for each tissue sample was normalised to the total injected dose of radioactivity to the animal to give %ID (injected dose), and then normalised to the weight of the counted tissue to give the radioactivity uptake of the tissue as %ID/g. Tabulated values shown in Additional file 1: Table S2.

[7] = PR-induced (PR+, gonadotropin stimulated) mice, mean ± SEM

CC1(C)OC(=S)Nc2ccc(-c3cccnc3[18F])cc21 [[^18F]2]
logD ([1]; pH 7.4, PBS (pH 7.4) / octan-1-ol, three repeats in triplicate, read-out: Distribution coefficient (LogD7.4), mean ± SD): 1.69 ± 0.1 | logD ([1]; pH 7.4, single measurements (Run 1-3, a-c), read-out: LogD7.5): 1.67 | Stability after formulation [2]: 99.7% | Uptake of radioligand in cell lines ([3]; T47D (PR++) compared to MCF7 (PR+) and MDA-MB-231 (PR-), 60 min, 37 °C): significant accumulation in T47D cells | Uptake in T47D cells on co-incubation with progesterone (blocking) ([3]; T47D cells, progesterone 0.01–0.1 μM): decreased in a dose-dependent manner | [^18F]2 parent (Rt = ca 12:21 min:sec), single run ([4]; individual runs / representative chromatogram): 33.3% and 36.3% and 36.6% | [^18F]2 parent (Rt = ca 12:21 min:sec), mean ± SD ([4]; n = 3): 35.4 ± 1.8% | Distribution of radioactivity in PET images [5]: Extensive skeletal uptake; also recorded: accumulation of radioactivity in the liver and small intestines, but also in the spine, joints and skull | Bone uptake ratio, gonadotropin-stimulated vs control mice [6]: 2 fold | Biodistribution, blood [6, 7]: 1.30 ± 0.30 %ID/g | Biodistribution, bone [6, 7]: 31.21 ± 5.99 %ID/g | Biodistribution, brain [6, 7]: 0.40 ± 0.09 %ID/g | Biodistribution, heart [6, 7]: 1.47 ± 0.31 %ID/g | Biodistribution, kidney [6, 7]: 3.89 ± 1.26 %ID/g | Biodistribution, large intestine [6, 7]: 13.25 ± 1.70 %ID/g | Biodistribution, liver [6, 7]: 14.48 ± 4.91 %ID/g | Biodistribution, lungs [6, 7]: 1.33 ± 0.28 %ID/g | Biodistribution, muscle [6, 7]: 1.55 ± 0.44 %ID/g | Biodistribution, small intestine [6, 7]: 36.08 ± 1.21 %ID/g | Biodistribution, spleen [6, 7]: 0.15 ± 0.06 %ID/g | Biodistribution, stomach [6, 7]: 3.41 ± 0.26 %ID/g | Biodistribution, urine [6, 7]: 12.93 ± 12.56 %ID/g | Biodistribution, blood ([6]; control (PR-) mice, mean ± SEM): 0.01 ± 0.000 %ID/g | Biodistribution, bone ([6]; control (PR-) mice, mean ± SEM): 15.37 ± 3.47 %ID/g | Biodistribution, brain ([6]; control (PR-) mice, mean ± SEM): 0.41 ± 0.09 %ID/g | Biodistribution, heart ([6]; control (PR-) mice, mean ± SEM): 1.40 ± 0.33 %ID/g | Biodistribution, kidney ([6]; control (PR-) mice, mean ± SEM): 4.02 ± 1.18 %ID/g | Biodistribution, large intestine ([6]; control (PR-) mice, mean ± SEM): 1.30 ± 0.07 %ID/g | Biodistribution, liver ([6]; control (PR-) mice, mean ± SEM): 6.19 ± 1.74 %ID/g | Biodistribution, lungs ([6]; control (PR-) mice, mean ± SEM): 1.28 ± 0.35 %ID/g | Biodistribution, muscle ([6]; control (PR-) mice, mean ± SEM): 0.91 ± 0.19 %ID/g | Biodistribution, ovary ([6]; control (PR-) mice, mean ± SEM): 1.32 ± 0.22 %ID/g | Biodistribution, small intestine ([6]; control (PR-) mice, mean ± SEM): 30.49 ± 3.05 %ID/g | Biodistribution, spleen ([6]; control (PR-) mice, mean ± SEM): 0.99 ± 0.28 %ID/g | Biodistribution, stomach ([6]; control (PR-) mice, mean ± SEM): 0.73 ± 0.17 %ID/g | Biodistribution, urine ([6]; control (PR-) mice, mean ± SEM): 10.94 ± 8.40 %ID/g

From paper PMC6328429, “Synthesis of a benzoxazinthione derivative of tanaproget and pharmacological evaluation for PET imaging of PR expression” (EJNMMI Radiopharmacy and Chemistry, 2019)
